The target in test [1] is PI3K catalytic subunit beta. Nature of the test: Inhibition of P13Kbeta (unknown origin) in the presence of ATP by scintillation proximity assay.
In test [2] the target is PI3K catalytic subunit gamma. The test is described as follows: Inhibition of P13Kgamma (unknown origin) in the presence of ATP by scintillation proximity assay.
A short description of test [3]: Inhibition of Ribosomal protein S6 kinase in human THP-1 cells by ELISA analysis.

Each structure is given as a SMILES string. pIC50: −log10 of the molar value.

Consider `Cc1cc(S(=O)(=O)N[C@H]2CC[C@H](O)CC2)ccc1-c1cnc(N)c(C(=O)C2CC2)n1`, for which the pIC50 in test [1] was 6.40. `Cc1nnc(-c2cc(-c3cc4c(c(S(C)(=O)=O)c3)C(=O)N([C@@H](C)C3CC3)C4)ccn2)[nH]1` [US11396502, Example 12]: in test [2], the negative logarithm of the IC50 (pIC50) is > 7.00. The same measure, in the same setting: under `Clc1ccc(Cn2cc(-c3ccnc(-c4ncc(-c5ccccc5)[nH]4)c3)cn2)cc1` [US11352340, Example 1] stands > 7.30. For `Cc1cc(S(=O)(=O)N[C@H]2CC[C@H](O)CC2)ccc1-c1cnc2c(N)c(Cl)ccn12`, the pIC50 in test [2] was > 7.00.

On to `CC(NC(=O)c1c(N)nn2cccnc12)c1cc(Cl)c2c(C#N)ncn2c1N1CCS(=O)(=O)C(C)C1` (stereo unspecified), for which, in test [3], the pIC50 was > 6.52.

As to `Cc1ncc(-c2cc(-c3ccc(S(=O)(=O)NCC(C)(C)O)cc3C)cnc2N)o1`, in test [1], the pIC50 was 5.77.

For the origin of these results see BindingDB's records for PubMed 38988222 (Hebei University of Science & Technology).
